Where a SMILES comes first, the peptide text is derived from it. [ ]: non-standard residue; d: D form. The star is where a group is joined. Dolaproine = CO[C@@H]([C@@H]1CCCN1)[C@@H](C)C(=O)O; Dil = CC[C@H](C)[C@H](NC)[C@@H](CC(=O)O)OC; X1 = C[C@@H](N*)[C@@H](O)c1ccccc1; NMeV = CN[C@H](C(=O)O)C(C)C
Legend:
[1] = Rat study of trastuzumab-MC-val-cit-PAB-MMAE (Example 8): clinical observations, mortality, body weight; assay type: in vivo, Sprague-Dawley rats
Protocol: Groups 2 and 3 were administered a preparation of Tr-MC-val-cit-PAB-MMAE with average drug loading of 8.7 MMAE/Tr. Groups 4, 5, and 6 were administered a preparation of Tr-MC-val-cit-PAB-MMAE with average drug loading of 5.3 MMAE/Tr. […] Group 6 received the highest dose of 4209 μg MMAE/m^2.
The dose solutions were administered by a single intravenous bolus tail-vein injection on Study Day 1 at a dose volume of 10 ml/kg. […] Body weights of the animals were measured pre-dose on Study Day 1 and daily thereafter. Whole blood was collected into EDTA containing tubes for hematology parameters and complete blood counts. Whole blood was collected into serum separator tubes for clinical chemistry parameters. Blood samples were collected pre-dose on […], and on Study Days 3 and 5. Whole blood was also collected into lithium heparin containing tubes and the plasma was frozen at −70° C. for later analysis.

[2] = cited from earlier work
[3] = more cytotoxic; cited from earlier work

Row | Structure (SMILES) | appearance of animals throughout the 5 days on study ([1]; Group 7, free MMAE 0.206 mg/kg, single iv bolus, 6 female rats) | changes in body weight ([1]; groups 2, 4 and 7, comparable amounts of MMAE (840 ug/m^2)) | adverse effects leading to discontinuation of clinical trials [2] | cytotoxicity relative to conventional cancer chemotherapeutic agents like methotrexate, daunorubicin, and vincristine [3]
1 | CC[C@H](C)[C@@H]([C@@H](CC(=O)N1CCC[C@H]1[C@H](OC)[C@@H](C)C(=O)N[C@H](C)[C@@H](O)c1ccccc1)OC)N(C)C(=O)[C@@H](NC(=O)[C@@H](NC)C(C)C)C(C)C [MMAE] (H-[NMeV]V[Dil][Dolaproine]-X1) | appeared healthy | comparable changes in body weight | – | –
2 | COc1cc2cc(c1Cl)N(C)C(=O)C[C@H](OC(=O)[C@H](C)N(C)C(C)=O)[C@]1(C)O[C@H]1[C@H](C)[C@@H]1C[C@@](O)(NC(=O)O1)[C@H](OC)/C=C/C=C(\C)C2 [Maytansine] | – | – | serious adverse effects on the central nervous system and gastrointestinal system | 100-to 1000 fold

Reference: patent US7662936B2, “Mass spectrometry of antibody conjugates” (priority 2004, dated 2010)
